The values below come from US20050080020A1, “Hydroxylated indirubin derivatives” (priority 2002, published 2005).

Read-outs that look alike come from different tables or passages of the source.

One series in a line: log P (octanol/water). Type of series: physicochemical.
Series [1] concerns cytochrom P450 dependent liver monooxygenases.
For series [2], the system named is human solid tumors implanted into nude mice. To be noted: cited from earlier work.
Series [3] is described as follows: solubility in physiological saline (pH 7.4). It counts as physicochemical.
The subject of the next series is tumor cells. Nature of the series: inhibition of growth of tumor cells. Type of series: cell-based. The conditions noted are these: relative to parent compounds.
Setting [4] is: nude mice, comparable dosage, cf. PCT/EP00/03210.

For `Cc1ccc2c(c1)/C(=C1/Nc3ccccc3C1=O)C(=O)N2` [5-methylindirubin], the “log P (octanol/water)” value in “log P (octanol/water)” is 1.1. For the same compound, the “metabolism (oxidative, liver microsomes)” value in series [1] (liver microsome preparations from cows, pigs, rats and human liver samples) was “rapidly metabolized”. In addition, in series [2] (setting [4]), the “effectiveness on human solid tumors implanted into nude mice” value is “highly effective” and the “toxicity (body weight loss)” value is listed as “without any perceptible toxicity”. Further, the “solubility in physiological saline” value in series [3] is given as 0.1 mg/l.

With `Cc1cc2c(cc1O)NC(=O)C2=C1Nc2c(O)cccc2C1=O` [6,7′-dihydroxy-5-methylindirubin], the “inhibiting growth of tumor cells, compared with the parent compounds” value in the series on tumor cells is “at least as effective”.

Regarding `Cc1cc2c(cc1O)NC(=O)C2=C1Nc2ccccc2C1=O` [6-hydroxy-5-methylindirubin], the “log P (octanol/water)” value in “log P (octanol/water)” was found to be 1.6. In addition, in the series on tumor cells, the “inhibiting growth of tumor cells, compared with the parent compounds” value was “at least as effective”. In addition, in series [3], the “increase of solubility versus parent compound 5-methylindirubin (factor)” value is “more than 2000” and the “solubility in physiological saline” value is recorded as “up to 240 mg/l”.

For the compound `O=C1Nc2ccccc2/C1=C1/Nc2ccccc2C1=O` [indirubin], the “metabolism (oxidative, liver microsomes)” value in series [1] was “not metabolized to a detectable extent”. Further, the “toxicity (body weight loss)” value in series [2] (mouse, in vivo) is listed as “remarkably toxic”.
